# Results published in PMC12881674, “Activation of TRPV3 channels in bladder cancer cells stimulates ATP release” (Molecular Pharmacology, 2025).
# Target: T1, TRPV3 in CAL-29 cells (Homo sapiens, UniProt Q8NET8)
# T1 construct: host or cells: CAL-29
# T1 sequence (Q8NET8 1-790): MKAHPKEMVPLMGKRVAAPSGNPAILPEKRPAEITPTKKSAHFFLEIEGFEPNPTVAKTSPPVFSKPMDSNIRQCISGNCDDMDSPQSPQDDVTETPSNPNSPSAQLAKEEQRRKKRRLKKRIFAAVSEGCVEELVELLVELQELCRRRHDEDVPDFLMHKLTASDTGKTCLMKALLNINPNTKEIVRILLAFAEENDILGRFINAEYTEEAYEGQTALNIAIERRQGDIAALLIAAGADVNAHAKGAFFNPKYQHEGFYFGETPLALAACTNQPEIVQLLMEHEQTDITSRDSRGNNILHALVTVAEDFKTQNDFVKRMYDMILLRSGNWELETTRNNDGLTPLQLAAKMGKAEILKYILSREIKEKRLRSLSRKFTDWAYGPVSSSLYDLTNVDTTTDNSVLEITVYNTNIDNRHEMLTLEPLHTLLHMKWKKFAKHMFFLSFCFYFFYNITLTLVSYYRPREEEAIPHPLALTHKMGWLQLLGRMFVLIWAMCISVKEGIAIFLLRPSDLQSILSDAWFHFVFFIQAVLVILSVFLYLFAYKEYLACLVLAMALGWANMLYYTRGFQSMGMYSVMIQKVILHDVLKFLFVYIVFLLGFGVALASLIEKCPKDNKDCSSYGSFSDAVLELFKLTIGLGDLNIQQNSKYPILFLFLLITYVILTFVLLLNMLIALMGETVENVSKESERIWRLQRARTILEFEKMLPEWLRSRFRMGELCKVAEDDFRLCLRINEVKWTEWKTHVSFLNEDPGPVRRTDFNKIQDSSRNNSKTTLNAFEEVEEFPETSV
# Assay: fura-2 Ca2+ assay in CAL-29 bladder cancer cells
# Type: cell-based
# Conditions: 50 μM AV3-1
# Method: All fluorometric Ca^2+ assays were performed in HBS buffer at room temperature. The compounds of the Enamine Diversity Set were diluted in a buffer composed of 150 mM NaCl and 20 mM HEPES and added to the cells at a final concentration of 25 μM (0.5% DMSO). For the primary compound screening and the generation of concentration-response analyses, a robotic liquid handling station (Freedom Evo 150; Tecan) with a built-in custom-made fluorescence plate imager was used. HEKTRPV3 and bladder cancer cell lines were harvested and loaded with 4 μM fluo-4/AM (Invitrogen; Fisher Scientific) in cell culture medium for 30 minutes at 37 °C. […] Fluorescence was excited using a 470-nm light-emitting diode, and emitted light was imaged through a 515-nm–long pass filter with a cooled Zyla 5.5 camera (Andor). Fluorescence was recorded and processed under the control of the μ-Manager 2.0 gamma software (https://micro-manager.org.[28]). After recording baseline fluorescence, compounds were dispensed into the wells via the liquid handling device. […] For further analysis, fluorescence signals were calculated for each well, corrected for background intensities and normalized to the initial signals. […] Fluorescence signals were excited with a fiber-coupled monochromator device (Polychrome V; Till Photonics) at 340, 358, and 380 nm and calibrated as described before.[29] […]
smiles,measurement,value
COC(=O)C12CN(Cc3ccccc3)CC1(C(=O)OC)CN(Cc1ccccc1)C2 (stereo not shown) [AV3-1],[Ca2+]i response in CAL-29 cells,robust increases in [Ca^2+]i
